# Source: US20190209506A1, “METHODS OF REDUCING OR PREVENTING OXIDATION OF LDL OR LIPID MEMBRANES IN A SUBJECT IN NEED THEREOF” (Amarin Pharmaceuticals Ireland Limited, priority 2018, published 2019)
# Where “and” joins values, the source holds several entries; their conditions need not be identical. Equal values may be shown once.
# What was measured:
# human LDL = assay: Copper-induced LDL oxidation, dose and time dependence, MDA (Example 17); assay type: biochemical
# Method: LDL was isolated from human plasma by isopycnic centrifugation, separated into test samples of 100 μg/mL, and incubated at 37° C. for 30 min in the absence (vehicle) or presence of EPA over a range of concentrations of 1 to 10 μM. The samples were subsequently subjected to copper-induced oxidation. Following the copper-induced oxidation, LDL oxidation was measured over the course of six hours. Tables 8 and 9 enumerate the changes in MDA concentration expressed as molar equivalents for each of the vehicle and EPA test samples as a function of time (i.e., at 0 hours, 1 hour, 2 hours, 2.5 hours, and 3 hours).
# HUVECs = assay: NO and ONOO^− release from HUVECs exposed to oxLDL, nanosensors (Example 8); assay type: cell-based, human; conditions: ECs exposed to oxLDL; compared to vehicle
# Method: Human umbilical vein endothelial cells (HUVECs) were isolated into primary cultures from female donors by Clonetics (San Diego, Calif.) and purchased as proliferating cells. All cell culture donors were healthy, with no pregnancy or prenatal complications. […] The confluent cells (4 to 5×10^5 cells/35 mm dish) were placed with minimum essential medium containing 3 mM L-arginine and 0.1 mM BH4 [(6R)-5,6,7,8-tetrahydrobiopterin]. Before experimental use, the cells (from second or third passage) were rinsed twice with Tyrode-HEPES buffer with 1.8 mM CaCl2.
# Plasma was immediately separated by centrifugation at 3,000 g for 10 minutes at 4° C.
# Tris-NaCl buffer was added to the dialyzed LDL to adjust the protein concentration to 30 mg/mL. A 1-mL aliquot of 20 μM CuSO4 was added to 1 mL of dialyzed normal LDL.
# Concurrent measurements of NO and ONOO^− were performed with tandem electrochemical nanosensors combined into one working unit with a total diameter of 200-400 nm. Their design was based on previously developed and chemically modified carbon-fiber technology. […]
# The amperometric method (with a response time of 0.1 ms) provides a quantitative signal (current) that is directly proportional to changes (from basal levels) in NO or ONOO^− concentration. […] Basal NO or ONOO^− levels were measured by differential pulse voltammetry in separate experiments. […]
# [1] = LOOH formation in membrane vesicles, EPA dose dependence (Example 18); assay type: biochemical; conditions: after four hours
# Excerpt: Iodometric analyses were used to measure LOOH formation in membrane vesicles reconstituted as binary mixtures of cholesterol and dilinoleoyl phosphatidylcholine.
# [2] = Lipid hydroperoxide (LOOH) formation in cholesterol-enriched model membranes under autoxidation (Example 3); assay type: biochemical; conditions: EPA:lipids 1:30; C/P 0.6:1; autoxidation 37° C., 72 hours
# Method: Levels of lipid hydroperoxides were also measured in cholesterol-enriched membrane prepared in the absence of EPA as a control. […] CHOD-iodide color reagent (stock) was prepared according to a procedure modified from El-Saadani et […], Goher […], Jurgens G. A spectrophotometric assay for lipid peroxides in serum lipoproteins using commercially available reagent. (J. Lipid. […] Membrane samples consisting of DLPC±cholesterol were prepared as follows. Component lipids (in chloroform) were transferred to 13×100 mm test tubes and shell-dried under a steady stream of nitrogen gas while vortex mixing. The lipid was co-dried with EPA. Residual solvent was removed by drying for a minimum of 3 h under vacuum. After desiccation, each membrane sample was resuspended in diffraction buffer (0.5 mM HEPES, 154 mM NaCl, pH 7.3) to yield a final phospholipid concentration of 1.0 mg/mL. Multilamellar vesicles (MLV) were formed by vortex mixing for 3 minutes at ambient temperature. […] Absorbances were measured against a CHOD blank at 365 nm using a Beckman DU-640 spectrophotometer. The CHOD colorimetric assay is based on the oxidation of iodide (I^-) by lipid hydroperoxides (LOOH) and proceeds according to the following reaction scheme: The quantity of triiodide anion (I3^-) liberated in this reaction is directly proportional to the amount of lipid hydroperoxides present in the membrane sample.
compound,measurement,setting,value
"CC/C=C\C/C=C\C/C=C\C/C=C\C/C=C\CCCC(=O)O [EPA, cis-5,8,11,14,17-eicosapentaenoic acid]",MDA Equivalent,"human LDL; EPA 1.0 μM, 0 Hour",0.24 µM and 0.26 µM
same,MDA Equivalent,"human LDL; EPA 1.0 μM, 1 Hour",3.85 µM and 3.14 µM and 2.87 µM
same,MDA Equivalent,"human LDL; EPA 1.0 μM, 2 Hour",10.33 µM and 10.92 µM and 10.63 µM
same,MDA Equivalent,"human LDL; EPA 1.0 μM, 2.5 Hour",10.60 µM and 10.92 µM and 10.65 µM
same,MDA Equivalent,"human LDL; EPA 1.0 μM, 3 Hour",9.44 µM and 9.95 µM and 9.93 µM
same,MDA Equivalent,"human LDL; EPA 1.0 μM, 3.5 Hour",10.13 µM and 10.87 µM
same,MDA Equivalent,"human LDL; EPA 1.0 μM, 4 Hour",8.93 µM and 9.39 µM
same,MDA Equivalent,"human LDL; EPA 1.0 μM, 6 Hour",9.79 µM and 10.10 µM
same,MDA Equivalent,"human LDL; EPA 2.0 μM, 0 Hour",0.25 µM and 0.26 µM and 0.19 µM
same,MDA Equivalent,"human LDL; EPA 2.0 μM, 1 Hour",1.15 µM and 1.04 µM
same,MDA Equivalent,"human LDL; EPA 2.0 μM, 2 Hour",7.34 µM and 7.35 µM and 7.67 µM
same,MDA Equivalent,"human LDL; EPA 2.0 μM, 2.5 Hour",9.45 µM and 9.62 µM and 9.60 µM
same,MDA Equivalent,"human LDL; EPA 3.0 μM, 0 Hour",0.21 µM and 0.22 µM
same,MDA Equivalent,"human LDL; EPA 3.0 μM, 1 Hour",0.56 µM and 0.57 µM and 0.53 µM
same,MDA Equivalent,"human LDL; EPA 3.0 μM, 2 Hour",1.72 µM and 1.78 µM and 1.74 µM
same,MDA Equivalent,"human LDL; EPA 3.0 μM, 2.5 Hour",3.09 µM and 3.01 µM and 2.91 µM
same,MDA Equivalent,"human LDL; EPA 3.5 μM, 0 Hour",0.17 µM and 0.26 µM and 0.29 µM
same,MDA Equivalent,"human LDL; EPA 3.5 μM, 2 Hour",1.04 µM and 1.05 µM and 0.90 µM
same,MDA Equivalent,"human LDL; EPA 3.5 μM, 2.5 Hour",1.16 µM and 1.43 µM and 0.95 µM
same,MDA Equivalent,"human LDL; EPA 4.0 μM, 0 Hour",0.19 µM and 0.21 µM and 0.22 µM
same,MDA Equivalent,"human LDL; EPA 4.0 μM, 1 Hour",0.37 µM and 0.41 µM and 0.40 µM
same,MDA Equivalent,"human LDL; EPA 4.0 μM, 2 Hour",1.00 µM and 0.78 µM and 0.71 µM
same,MDA Equivalent,"human LDL; EPA 4.0 μM, 2.5 Hour",1.26 µM and 0.94 µM and 0.80 µM
same,MDA Equivalent,"human LDL; EPA 4.5 μM, 0 Hour",0.28 µM and 0.17 µM and 0.18 µM
same,MDA Equivalent,"human LDL; EPA 4.5 μM, 1 Hour",0.28 µM and 0.30 µM and 0.21 µM
same,MDA Equivalent,"human LDL; EPA 4.5 μM, 2 Hour",0.38 µM and 0.50 µM and 0.44 µM
same,MDA Equivalent,"human LDL; EPA 4.5 μM, 2.5 Hour",0.36 µM and 0.19 µM and 0.31 µM
same,MDA Equivalent,"human LDL; EPA 5.0 μM, 0 Hour",0.19 µM and 0.26 µM and 0.27 µM
same,MDA Equivalent,"human LDL; EPA 5.0 μM, 2 Hour",0.35 µM and 0.33 µM and 0.30 µM
same,MDA Equivalent,"human LDL; EPA 5.0 μM, 2.5 Hour",0.22 µM and 0.24 µM and 0.21 µM
same,MDA Equivalent,"human LDL; EPA 10.0 μM, 0 Hour",0.21 µM and 0.24 µM and 0.29 µM
same,MDA Equivalent,"human LDL; EPA 10.0 μM, 1 Hour",0.12 µM and 0.06 µM
same,MDA Equivalent,"human LDL; EPA 10.0 μM, 2 Hour",0.27 µM and 0.29 µM and 0.23 µM
same,MDA Equivalent,"human LDL; EPA 10.0 μM, 2.5 Hour",0.01 µM and 0.02 µM
same,inhibition of LDL oxidation,"human LDL; above 7.0 μM, through 6 hours",> 88%
same,IC50,"human LDL; at 6 hours, read-out: half-maximum concentration of inhibition of LDL oxidation",5 µM
same,time up to which oxidation was inhibited,human LDL; concentrations ≤3 μM,up to 4 hours
same,increase in NO release,HUVECs,45%
same,inhibition of LOOH formation,"[1]; 1.0 μM, 10 μM copper sulfate",6%
same,IC50,[1]; read-out: half-maximum concentration of LOOH inhibition,~6 µM
same,inhibition of LOOH formation,[1]; maximum concentration (range 1.0 to 10.0 μM),74%
same,LOOH levels,[2],728 ± 30 µM
same,reduction of LOOH levels compared to untreated controls,[2],greater than 90%
